In assay [1] the test system is biomarkers for myocardial infarction risk. The following applies: clinical trial; cited from earlier work.
Assay [2] has as its target T1, recombinant human FLAP protein (Homo sapiens, UniProt P20292).
T1 construct: made in house; host or cells: Sf9 insect cells (100,000×g membrane pellet used)
T1 sequence (P20292 1-161): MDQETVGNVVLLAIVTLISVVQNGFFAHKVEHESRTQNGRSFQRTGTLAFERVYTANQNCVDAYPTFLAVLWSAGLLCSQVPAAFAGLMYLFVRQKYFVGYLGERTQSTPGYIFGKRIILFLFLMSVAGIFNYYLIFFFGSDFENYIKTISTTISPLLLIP
The assay is described as follows: FLAP binding assay (SPA, displacement of [125I]L-691,831). The note with it: membranes of sf9 cells expressing recombinant human FLAP; [125I]L-691,831 probe; read-out: FLAP binding IC50. The method, boiled down:
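Membranes from sf9 cells expressing human FLAP in pH 7.5 Tris buffer (MgCl2, EDTA, PMSF). Non-specific binding defined with 10 μM cold L-691,831.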
In general terms: Displacement assays read how much labelled ligand stays bound in the presence of the test substance.

In assay [3] the test system is synthesis of LTB4 in human whole blood. Kind of assay: Human whole blood assay (inhibition of LTB4 synthesis, calcimycin stimulated). It is filed as cell-based. The note with it: heparinized human whole blood, calcimycin 20 μM, plasma LTB4. The method in brief:
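Steps: compound plus heparinized human whole blood, 15 min at 37° C; add calcimycin to 20 μM final; incubate another 30 min at 37° C; centrifuge at low speed and collect plasma; measure LTB4 with a homogeneous time-resolved fluorescence immunoassay.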

Assay [4] has as its system human glomerulonephritis. The following applies: clinical trial; cited from earlier work.
Assay [5] concerns apoE/LDL-R double knockout mice. The note with it: oral dosing, high-fat diet from 2 months of age to 6 months; cited from earlier work.
Assay [6] concerns ApoE−/−xCD4dnTβRII mice. The following applies: via infusion, treated for four weeks; cited from earlier work.

pIC50: −log10 of the molar value.

Take `O=C(O)[C@@H](c1ccc(OCc2ccc3ccccc3n2)cc1)C1CCCC1` [DG-031]: the “effect on biomarkers for myocardial infarction risk” value in assay [1] was “dose-dependent suppression of several biomarkers”. Regarding `CN(C)C(=O)Cn1cc(-c2nc(C(C)(c3ccc(-c4ncc(N)nc4C#N)cc3)C3CC3)no2)cn1` (stereo not shown) [Example 295, 2-[4-(3-{1-[4-(5-Amino-3-cyano-pyrazin-2-yl)-phenyl]-1-cyclopropyl-ethyl}-[1,2,4]oxadiazol-5-yl)-pyrazol-1-yl]-N,N-dimethyl-acetamide], the pIC50 in assay [2] was 8.12; in assay [3], 6.82. With `CN(C)C(=O)Cn1cc(-c2nc(C(C)(c3ccc(-c4ccc(N)nc4C#N)cc3)C3CC3)no2)cn1` (stereo not shown) [Example 296], the pIC50 was 7.92 in assay [2] and 6.64 in assay [3]. Take `CN(c1nc(C(C)(c2ccc(-c3cnc(N)nc3)cc2)C2CC2)no1)C1CCC(O)CC1` (stereo not shown) [Example 297, 4-[(3-{1-[4-(2-Amino-pyrimidin-5-yl)-phenyl]-1-cyclopropyl-ethyl}-[1,2,4]oxadiazol-5-yl)-methyl-amino]-cyclohexanol]: the pIC50 in assay [2] was 8.07; in assay [3], 7.10.

As to `Cc1nc(N)nc(F)c1-c1ccc([C@](C)(c2noc(-c3cnn(CC(=O)N(C)C)c3)n2)C2CC2)cc1` [Example 298, 2-[4-(3-{(R)-1-[4-(2-Amino-4-fluoro-6-methyl-pyrimidin-5-yl)-phenyl]-1-cyclopropyl-ethyl}-[1,2,4]oxadiazol-5-yl)-pyrazol-1-yl]-N,N-dimethyl-acetamide], the results for the pIC50 in assay [2] and in assay [3] were 8.00 and 6.89, respectively.

With `CC(C)(C)Sc1c(CC(C)(C)C(=O)O)n(Cc2ccc(Cl)cc2)c2ccc(OCc3ccc4ccccc4n3)cc12` [MK-591], the “effect on proteinuria in human glomerulonephritis” value in assay [4] is recorded as “reduce proteinuria”. Turning to `CC(C)c1ccc2c(c1)c(SC(C)(C)C)c(CC(C)(C)C(=O)O)n2Cc1ccc(Cl)cc1` [MK-886], in assay [5], the “decrease in plaque coverage in the aorta” value is 56% and the “decrease in plaque coverage in the aortic root” value is 43%. Also, the “decrease in plaque area in the aortic root” value in assay [6] is listed as ~40%.

Usually pIC50 stands for the negative decadic logarithm of the IC50, by convention in mol/L.

These data come from US8658661B2, “Oxadiazole inhibitors of leukotriene production” (Boehringer Ingelheim International GmbH, priority 2010, dated 2014).
